In US12202866B2, “Therapeutic nanoconjugates and uses thereof” (UNIVERSITAT AUTÒNOMA DE BARCELONA (UAB), priority 2017, dated 2025):
Marks after values point to notes of the source that are not given here.

What was measured:
[1] = tested on: subcutaneous CXCR4^+ SW1417 CRC tumor; conditions: mouse, in vivo, iv
Experimental: (§4) SC model was used to assess tumor uptake and nanoconjugate internalization and in vivo competition studies using co-administration of the CXCR4 antagonist AMD3100.
(§5) Two hours, 5 h and 24 h after the administration, the mouse was euthanized to resect the tumor and register ex vivo the intensity of the green fluorescence emitted by the nanoconjugated that biodistributed to tumor tissue using the IVIS® 200-Spectrum (Perkin Elmer, MA, USA). Following, tumor tissue samples were taken, processed and performed immunohistochemistry (IHC) to determine the presence or absence of the corresponding nanoconjugate into cytosol of tumor cells using an anti-GFP antibody (1:300; Santa-Cruz Biotechnology, CA, USA). […] Apoptosis was assessed determining nuclear condensation with Hoechst staining of tumor tissue sections and counting the number of condensed or defragmented nuclei in five high-power magnification fields in different sections for each tumor using the Olympus DP73 digital camera and the CellD Imaging 3.3 programme (Olympus, Tokyo, Japan).

[2] = tested on: subcutaneous CXCR4^+ SW1417 CRC tumor; assay: Induction of DNA double strand breaks and apoptosis in tumor tissue, SC SW1417 model; type: in vivo, mouse; conditions: for number of apoptotic figures in tumor tissue (Hoechst nuclear condensation or defragmentation): 24 h after injection; for number of DSBs foci in tumors (anti-gH2AX IHC): five hours after treatment
Experimental: (§1) The SC SW1417 mouse model was used to determine the capacity of the nanoconjugate to induce DNA damage and apoptosis in tumor tissue, as well as the kinetics of CXCR4 expression in the membrane of tumor cells after treatment, regarding the fraction of CXCR4 expressing tumor cells and their intensity, since CXCR4^+ are the target cells for the nanoconjugate. […] The mice had been treated with equimolecular dosages of T22-GFP-H6, free oligo-FdU or Buffer, in which also were determined the levels of CXCR4 expression in tumor tissue at the different time points.

[3] = Nanoparticle size by dynamic light scattering; type: physicochemical; conditions: Example 2; unit not given
Experimental: The volume and size distribution of the nanoparticles was determined by dynamic light scattering at 633 nm (Zetasizer Nano ZS, Malvern Instruments Limited, Malvern, Worcestershire, UK). Nanoconjugate size was also measured using purified samples, diluted to 0.2 mg/mL and contrasted by evaporation of 1 nm platinum layer in carbon-coated grids, before being visualized in a Hitachi H-7000 transmission electron microscope (TEM), as described33.

[4] = tested on: CXCR4^+ SW1417 CRC metastases; assay: Regression of established metastasis protocol, orthotopic CXCR4+ SW1417 CRC model; type: in vivo, Swiss nude mice; conditions: for LN foci, mean foci number per mouse / Lung foci, mean foci number per mouse: Regression protocol, 6 histology sections, mean + SE; for LN foci, mean foci number per mouse: 20 μg (or equimolecular) q3d x10 i.v.
Experimental: Swiss nude mice were anesthetized with ketamine and xylazine, exteriorizing their cecum by a laparotomy. 2×106 CXCR4^+ SW1417-luci CRC cells (expressing luciferase, to allow ex vivo bioluminescent identification of metastatic foci in affected organs at the end of therapy) were suspended in […] of modified Eagle's medium, and loaded into a sterile micropipette. The cell suspension was slowly injected, under a binocular lens, with an approximate 30° angle and its tip introduced 5 mm into the cecal wall. Afterward, a slight pressure was applied with a cotton stick at approximately 2 mm from the injection point in the direction of the pipette axis. The pipette was pulled out and the area around the injection cleaned with 3% iodine. After injection, the gut was returned to the abdominal cavity and closed with surgical staples.
The orthotopic and metastatic CRC model developed in Swiss nude mice was employed to perform experiments of metastasis regression. […] The experiment was finished when the first animal of the buffer-treated-group had to be euthanized. See below the studied parameters to evaluate the antimetastatic effect.
(§2) At necropsy, the number and size of visible metastases in the organs where dissemination is expected in colorectal cancer (lymph nodes, liver, lung and peritoneum) were recorded for each mouse in all compared groups. Also the number of metastatic foci that emitted bioluminiscence (derived from the SW1417-luci CRC cells) were counted ex vivo in the target organs for metastasis, using the IVIS® 200-Spectrum (Perkin-Elmer). Samples for histopathological and immunohistochemical analyses were collected and processed. Two independent observers analyzed H&E stained samples to count the number and measure the size of all observed metastatic foci in three (metastasis prevention experiment) or six (regression of metastasis experiment) sections of each organ in each mouse. The images were taken and the measurements were performed with an Olympus microscope with the CellD Olympus software (v3.3). […] The obtained results were used to study a possible correlation between CXCR4^+ CCF and antimetastatic effect at the different sites.
(§3) In order to analyze differences between control and experimental groups of affected mice in metastatic rates at the different organs, Fisher's exact test was used. The Mann-Whitney test was used to compare number and size of metastatic foci in the affected organs among groups. All quantitative values were expressed as mean±SE and the statistical tests were performed using SPSS version 11.0 (IBM, New York, USA). Differences among groups was considered significant at a p<0.05.

[5] = tested on: CXCR4^+ cancer cells in SC SW1417 CRC tumor; assay: CXCR4+ cancer cell fraction in tumor tissue along time after single dose (anti-CXCR4 IHC); type: in vivo, mouse; conditions: 24 h, 48 h, 72 h after equimolecular dose
Experimental: as §1

[6] = tested on: CXCR4^+ SW1417 CRC metastases; assay: Prevention of metastasis protocol, SC+ORT CXCR4+ SW1417 CRC model; type: in vivo, NOD/SCID mice
Experimental: Thus, a SC+ORT model, was produced: when SC tumors reached a volume of 700 mm3, mice were sacrificed by cervical dislocation and tumours were excised, discarding the necrotic areas. Three hundred mg of viable tumour tissue was then cut into pieces and disaggregated in a mix of 0.05% trypsin (Invitrogen) and 100 mg/ml DNase (Sigma-Aldrich). The mix was pipetted 30 times, using a 10 ml pipette, and incubated for 10 minutes at 37° C. with shaking. It was then re-pipetted 30 times, using 10 ml, 3 ml and 1 ml pipettes, and re-incubated for 5 minutes at 37° C. with shaking. This re-pipetting step was then repeated. The obtained SW1417 single-cell suspension was filtered through a cell strainer and centrifuged at 1,000 g for 10 minutes before counting the cells. Then 2×10^6 cells, […] resuspended in 50 μl of media, were microinjected in the cecum of each mouse, following the method described above.
The SC+ORT metastatic CRC model developed in NOD/SCID mice was used to evaluate the capacity of the nanoconjugate for metastasis prevention.
as §2, §3

[7] = tested on: subcutaneous CXCR4^+ SW1417 CRC tumor; assay: Tumor uptake and tumor cell internalization in subcutaneous CXCR4+ SW1417 CRC model; conditions: fluorescence emission
Experimental: as §4, §5

[8] = tested on: CXCR4^+ SW1417 CRC cells; assay: Internalization in CXCR4+ SW1417 CRC cells (flow cytometry, AMD3100 competition); type: cell-based, human; conditions: antagonist 1:10 protein:antagonist molar ratio, 1 h before nanoconjugate
Experimental: CXCR4+ SW1417-luc CRC cells were cultured in modified Eagle's medium (Gibco, Rockville, MD) supplemented with 10% fetal calf serum (Gibco), and incubated at 37° C. and 5% CO2 in a humidified atmosphere. […] Fluorescence emission was measured with a D detector (530/30 nm band pass filter). To assess specificity for CXCR4 receptor-mediated internalization, competition studies were performed incubating CRC SW1417 cells with the CXCR4 antagonist AMD3100 (Sigma Aldrich) in a 1:10 (protein:antagonist) molar ratio for 1 h before exposure to the nanoconjugate at […] for an additional hour.
The cells were washed in phosphate-buffered saline (Sigma-Aldrich). Live cells were recorded by TCS-SP5 confocal laser scanning microscopy (Leica Microsystems, Heidelberg, Germany) using a Plan Apo 63×/1.4 (oil HC×PL APO lambda blue) objective as described. To determine particle localization inside the cell, stacks of 10-20 sections forevery 0.5 μm of cell thickness were collected and three-dimensional models were generated using Imaris version 6.1.0 software (Bitplane, Zurich, Switzerland).

[9] = tested on: CXCR4^+ HeLa human cervical carcinoma cell line; assay: Internalization in CXCR4+ HeLa cells (flow cytometry, AMD3100 competition); type: cell-based; conditions: pre-treatment, 1:10 molar ratio
Experimental: To assess specificity for CXCR4 receptor mediated internalization, competition studies incubating CXCR4^+ HeLa cells with the CXCR4 antagonist AMD3100 (octahydrochloride hydrate, Sigma-Aldrich) were performed in a 1:10 (Protein:antagonist) molar ratio for 1 h before exposure to the nanoconjugate, as previously described for the T22-GFP-H6.
Nuclei were labeled with Hoechst 33342 (Life Technologies) and plasma membranes CellMask™ Deep Red (Life Technologies).

[10] = Prevention protocol, 3 histology sections, mean + SE

In the case of “T22-GFP-H6: targeting vector: fusion protein nanoparticle of peptide T22 (CXCR4 ligand), green fluorescent protein and a Histidine tail”, the “internalization into CXCR4^+ tumor cell cytosol by anti-GFP immunohistochemistry” value [1] is reported as “internalized”, the “number of apoptotic figures in tumor tissue (Hoechst nuclear condensation or defragmentation)” value [2] is reported as 3.0±0.3 and the “number of DSBs foci in tumors (anti-gH2AX IHC)” value [2] is reported as “undetectable”. The “size determined by dynamic light scattering” value [3] was 13.4+0.11, the “LN foci, mean foci number per mouse” value [4] was 1.1 ± 0.2 ^i and the “Lung foci, mean foci number per mouse” value [4] was 1.7 ± 0.6 ^l.
With “5′-(FdU)5-3′ [free oligo-FdU, reference compound]” the “CXCR4+ CCF in tumor tissue along time” value [5] was “remained similar to its basal level along time”, the “number of apoptotic figures in tumor tissue (Hoechst nuclear condensation or defragmentation)” value [2] was 7.1±0.6 and the “number of DSBs foci in tumors (anti-gH2AX IHC)” value [2] was 13.4±0.7. The “LN foci, mean foci number per mouse” value ([6]; Prevention protocol, 20 μg (or equimolecular) q3d x12 i.v., 3 histology sections, mean + SE) was 3.1 ± 0.4, the “Liver foci, mean foci number per mouse” value [6, 10] was 1.0 ± 0.3 ^c and the “Lung foci, mean foci number per mouse” value [6, 10] was 4.5 ± 1.6 ^e. For the same compound, the “Peritoneal foci, mean foci number per mouse” value [6, 10] was 2.8 ± 1.0 ^g, the “total or mean foci number at any site (LN, liver, lung, peritoneum)” value ([6]; compared to buffer-treated animals) was “did not reduce” and the “Metastasis Liver [%]” value ([6]; end of prevention experiment) was “[55]^a %”. The “Metastasis Liver, affected/total mice” value ([6]; end of prevention experiment) was 6/11, the “Metastasis Lung [%]” value ([6]; end of prevention experiment) was “[55]^c %” and the “Metastasis Lung, affected/total mice” value ([6]; end of prevention experiment) was 6/11. For the same compound, the “Metastasis Lymph nodes [%]” value ([6]; end of prevention experiment) was “[100] %”, the “Metastasis Lymph nodes, affected/total mice” value ([6]; end of prevention experiment) was 11/11 and the “Metastasis Peritoneal [%]” value ([6]; end of prevention experiment) was “[45] %”. For the same compound, the “Metastasis Peritoneal, affected/total mice” value ([6]; end of prevention experiment) was 5/11, the “remaining CXCR4^+ CCF in liver, lung and peritoneal metastatic tissue (anti-CXCR4 IHC)” value ([6]; end of prevention experiment) was “does not reduce” and the “Metastasis Size, Liver” value ([6]; mean foci size) was 9.6 μm^2 × 10^−3. For the same compound, the “Metastasis Size, Lung” value ([6]; mean foci size) was 17.9 μm^2 × 10^−3, the “Metastasis Size, Lymph nodes” value ([6]; mean foci size) was 77.0 μm^2 × 10^−3 and the “Metastasis Size, Peritoneal” value ([6]; mean foci size) was 304.8 μm^2 × 10^−3. For the same compound, the “Primary tumor Positive/#Mice” value ([6]; mice bearing a primary tumor out of total mice per group) was 11/11, the “Primary tumor [%]” value ([6]; percent of mice bearing a primary tumor) was “[100] %” and the “primary tumor growth by in vivo bioluminescence emission” value ([6]; prevention experiment, compared to buffer-treated mice) was “no significant inhibition”. For the same compound, the “LN foci, mean foci number per mouse” value [4] was 0.8 ± 0.2, the “Lung foci, mean foci number per mouse” value [4] was 2.0 ± 0.7 ^j,m and the “primary tumor growth by in vivo bioluminescence emission” value ([4]; regression experiment, compared to buffer treated animals) was “significantly inhibited tumor growth”.
With `c1cc(CN2CCCNCCNCCCNCC2)ccc1CN1CCCNCCNCCCNCC1` [AMD3100, reference compound] the “block of T22-GFP-H6-FdU tumor uptake by CXCR4 antagonist given prior to the nanoconjugate” value [7] was “completely blocked”, the “block of T22-GFP-H6-FdU internalization by CXCR4 antagonist” value [8] was “completely blocked” and the “block of T22-GFP-H6-FdU internalization in HeLa cells by CXCR4 antagonist pre-treatment” value [9] was “Complete internalization block”.
